Experimental data as given in US20160244755A1, “TREATING DISEASES ASSOCIATED WITH PGC1-ALPHA BY MODULATING MICRORNAS MIR-130A AND MIR-130B” (ACADEMIA SINICA;, priority 2013, published 2016).
“Also recorded” adds a separate entry of the source. Read-outs that look alike come from different tables or passages of the source.

Tests used:
Assay type in all cases: cell-based, human
HepG2 cells = experiment: measurement of glucose production in cell culture; set-up: glucose production: dose or concentration left out as unconfirmed
Protocol: Rosiglitazone and GW9662 were from Sigma. HepG2 and Huh7 cells were seeded in 6-well tissue culture plates at 5×10, Quasdorff, M. et al. Journal of viral hepatitis 17, 527-536 (2010) cells/well. At 24 h post-transfection, Rosiglitazone or GW9662 in 0.1% DMSO was added to medium. Culture medium was changed ever two days before harvest.
The glucose level of HBV transgenic mice was measured using a kit of DRI-CHEM SLIDE GLU-PIII (FUJIFILM, JAPAN). Ten microliters of mouse serum was deposited on a FUJI DRI-CHEM SLIDE GLU-PIII. Glucose oxidase (GOD) catalyzes the oxidization of sample glucose to generate hydrogen peroxide which then reacts with dye precursors and forms red dye. The optical reflection density was measured at 505 nm by the FUJI DRI-CHEM analyzer and converted into the glucose concentration […]. For the measurement of glucose concentration in cell culture, HBV producing cells (HepG2 and Q7 cells) were treated with PPARγ antagonist, GW9662 at indicated concentrations. Twenty-four hours before glucose measurement, the medium was replaced with 1 ml of glucose-free DMEM, supplemented with 2 mM sodium pyruvate. After 16 hrs incubation, 50 μl of medium was collected and the glucose concentration (mM) was measured using the glucose colorimetric assay (Biovision).

miR-130a = miR-130a expression in PPARγ-expressing HepG2 cell lines (stem-loop qPCR); settings: stable PPARγ-expressing HepG2 cell lines, U6 snRNA internal control
Protocol: Rosiglitazone and GW9662 were from Sigma. […] At 24 h post-transfection, Rosiglitazone or GW9662 in 0.1% DMSO was added to medium. Culture medium was changed ever two days before harvest.
Briefly, 100 ng RNAs were reverse transcribed by specific stem-loop primer and further analyzed by Taqman real-time PCR assay using default setting. […] Data were analyzed by Applied Biosystems 7500 software V2.0.1.

G6Pase mRNA = G6Pase mRNA in stable miR-130a expressing HepG2 cells (Northern blot)
Protocol: (§1) HBV core particle-associated DNA, total cellular cytoplasmic RNA, and microRNA were analyzed by Northern blot as described previously. Chua, P. K., et al. Journal of virology 84, 2340-2351 (2010), Le Pogam, S., et al., Journal of virology 79, 1871-1887 (2005).
(§2) Approximately one million Huh7 and HepG2 cells were transiently transfected by 3 μg plasmid DNA (pSuper and pSuper-miR-130a) with Polyjet (SignaGen), followed by G418 selection for three weeks. The G418-resistant colonies were pooled together.

PPARα = PPARα protein in stable miR-130a expressing HepG2 cell lines (Western blot)
Protocol: (§3) Native agarose gel electrophoresis and Western blot for detecting HBV core particles were as described. Chua, P. K., et al. Journal of virology 84, 2340-2351 (2010),
as §2

pyruvate kinase (PKLR) = pyruvate kinase (PKLR) protein in stable miR-130a expressing cells (Western blot); settings: stable miR-130a expressing Huh? cells
Source text: (§4) Anti-HBc (Dako), anti-PPARγ (Santa Cruz), anti-GAPDH, anti-PKLR, anti-G6Pase, anti-tubulin, anti-adiponectin (GeneTex, Taiwan), anti-PGC1α (Origene), anti-PCK1 (Abnova), anti-GCK (Biovision), Secondary antibodies include mouse anti-rabbit-HRP, goat anti-mouse-HRP (GeneTex, Taiwan) and donkey anti-goat-HRP (Santa Cruz).
as §3, §2

[1] = test system: 3′ UTR of PGC1α (NM_013261); experiment: luciferase reporter cotransfection assay, 3′ UTR of PGC1α; settings: for luciferase activity, reporter with 3′ UTR of PGC1α: reporter cotransfection assay
Source text: (§5) Assay for 3′ UTR or enhancer/promoter was as described previously. Chen, H. L., et al., PloS one 7, e34116 (2012).

PEPCK mRNA = PEPCK mRNA in stable miR-130a expressing HepG2 cells (Northern blot)
Protocol: as §1, §2

HNF4 = HNF4 protein in stable miR-130a expressing HepG2 cell lines (Western blot)
Protocol: as §3, §2

PPARγ mRNA = PPARγ mRNA in stable miR-130a expressing cell lines (Northern blot, RT-qPCR); settings: stable miR-130a expressing HepG2 cell lines
Protocol: (§6) Briefly, 2 μg of total RNA was reverse transcribed into cDNA using random primers and High Capacity cDNA Reverse Transcription kit (Applied Biosystem) at 37° C. for 120 minutes. The cDNA product was then diluted 100 times for real-time PCR analysis using Power SYBR Green PCR master mix (Applied Biosystem), and the default condition in a 20 μl reaction volume by Applied Biosystems 7500 Real-Time PCR System. Data were analyzed by relative quantification methods (AACt methods) using 7500 software V2.0.1.
as §1, §2

G6Pase = G6Pase protein in miR-130a expressing hepatocytes (Western blot)
Source text: as §4, §3, §2

PEPCK = PEPCK protein in miR-130a expressing hepatocytes (Western blot)
Source text: as §4, §3, §2

SP1 = SP1 protein in stable miR-130a expressing HepG2 cell lines (Western blot)
Protocol: as §3, §2

GCK mRNA = GCK mRNA in stable miR-130a expressing cells (RT-qPCR)
Protocol: as §6, §2

PGC1α = PGC1α protein in stable miR-130a expressing cells (Western blot)
Source text: as §4, §3, §2

PPARγ = PPARγ protein in stable miR-130a expressing cells (Western blot)
Source text: as §4, §3, §2

3′ UTR of PGC1α = experiment: compensatory mutagenesis luciferase cotransfection assay, PGC1α 3′UTR
Protocol: as §5
To distinguish between a direct and an indirect mechanism of miR-130a on reducing PGC1α mRNA, a reporter assay was performed using 3′UTR from either PPARγ or PGC1α. […] Next, compensatory mutations were introduced into the seed sequences of miR-130a and its evolutionarily conserved target site of PGC1α (FIG. 10). […] In a dose-dependent manner, miR-130a could reduce, while LNA-miR-130a could increase, the luciferase activity of a reporter containing the 3′UTR of PGC1α (FIG. 11).

CEBPb = CEBPb protein in stable miR-130a expressing HepG2 cell lines (Western blot)
Protocol: as §3, §2

glucokinase (GCK) = glucokinase (GCK) protein in stable miR-130a expressing HepG2 cells (Western blot)
Source text: as §4, §3, §2

PKLR mRNA = PKLR mRNA in stable miR-130a expressing cells (RT-qPCR)
Protocol: as §6, §2

adiponectin [2] = experiment: secreted adiponectin ELISA, miR-130a expressing cell lines
Protocol: The concentration of secreted adiponectin was measured by ELISA (Biovision). ELISA of HBsAg and HBeAg was from General Biologicals Co., Taiwan.
as §2

adiponectin [3] = experiment: adiponectin protein in stable miR-130a expressing cells (Western blot)
Source text: as §4, §3, §2

PGC1α mRNA = PGC1α mRNA in stable miR-130a expressing cell lines (Northern blot, RT-qPCR); settings: stable miR-130a expressing HepG2 cell lines
Protocol: as §6, §1, §2

[4] = test system: 3′ UTR of PPARγ (NM_005037); experiment: luciferase reporter cotransfection assay, 3′ UTR of PPARγ
Source text: as §5

## O=C(Nc1ccccc1)c1cc([N+](=O)[O-])ccc1Cl [GW9662]
HepG2 cells; HepG2 cells, irrespective of HBV-producing status
  glucose production: further increased; also recorded: increase
miR-130a
  expression of miR-130a: not

## miR-130a: human microRNA comprising CAGUGCAAUGUUAAAAGGGCAU (SEQ ID NO:1); expressed from pSuper-miR-130a in stable cell lines
HepG2 cells; control vs miR-130a producing cells
  glucose level: No significant difference
G6Pase mRNA
  G6Pase mRNA expression: reductions; also recorded: reduced
PPARα
  protein level of PPARα: No appreciable difference
Pyruvate kinase (PKLR)
  pyruvate kinase (PKLR) protein level: not reduced but increased; also recorded: increased level
[1]; dose response, co-transfection
  PGC1α 3′UTR luciferase reporter activity with increasing amounts: reduce; also recorded: decreasing reporter activity in a dose response manner
[1]
  luciferase activity, reporter with 3′ UTR of PGC1α: functional interaction
[1]; listed as MiR-130a
  luciferase activity, reporter with 3′ UTR of PGC1α: significantly reduced
PEPCK mRNA
  PEPCK mRNA expression: reductions; also recorded: reduced
HNF4
  protein level of HNF4: No appreciable difference
PPARγ mRNA
  PPARγ mRNA: reduction
G6Pase
  G6Pase protein expression: reductions; also recorded: Reduced
PEPCK
  PEPCK protein expression: reductions; also recorded: Reduced
SP1
  protein level of SP1: No appreciable difference
GCK mRNA
  GCK specific mRNA level: increased
PGC1α
  PGC1α protein: reduction
PPARγ
  PPARγ protein: reduction
3′ UTR of PGC1α; p<0.05
  direct targeting of 3′ UTR of PGC1α by compensatory mutagenesis: directly target
CEBPb
  protein level of CEBPb: No appreciable difference
Glucokinase (GCK)
  glucokinase (GCK) protein level: not reduced but increased; also recorded: increased level
PKLR mRNA
  PKLR specific mRNA level: increased
Adiponectin [2]
  secreted adiponectin: significantly reduced; also recorded: reduction
Adiponectin [3]
  adiponectin protein: reduction
PGC1α mRNA
  PGC1α mRNA: reduction
[4]
  luciferase activity, reporter with 3′ UTR of PPARγ: functional interaction
[4]; listed as MiR-130a
  luciferase activity, reporter with 3′ UTR of PPARγ: significantly reduced

## mutant miR-130a: miR-130a with compensatory mutations in the seed sequence, SEQ ID NO: 69 (CUGAGCAAUGUUAAAAGGGCAU; listed as RNA, chemistry not given here) [reference compound]
3′ UTR of PGC1α; combination of mutant miR-130a and mutant PGC1α, cotransfection
  luciferase activity, mutant PGC1α 3′UTR target site: restore the inhibitory effect
